What follows are molecules tested on VCaP prostate cancer cell line (assay: Inhibition of mibolerone-induced VCaP cell proliferation (WST-1)). Conditions: Homo sapiens, VCaP, mibolerone-induced (usually 0.1 nM), 4-5 days.
Format: cell-based
Procedure: The IC50 value of the test compound for inhibition of mibolerone-induced VCaP cell proliferation was measured.
Cell Proliferation Assays
The ability of test compounds to inhibit prostate cancer cell growth was studied by measuring inhibition of cell proliferation using androgen-sensitive VCaP prostate cancer cell line. […] Cell proliferation was measured using WST-1 Cell Proliferation Assay (Roche).

Row | SMILES | IC50
1 | Cc1nc(-c2cc(C(=O)N[C@@H](C)Cn3ccc(-c4ccc(C#N)c(Cl)c4)n3)n[nH]2)cs1 [Example 94, (S)—N-(1-(3-(3-chloro-4-cyanophenyl)-1H-pyrazol-1-yl)propan-2-yl)-5-(2-methylthiazol-4-yl)-1H-pyrazole-3-carboxamide] | 790 nM
2 | CC(O)c1cc(C(=O)N[C@@H](C)Cn2ccc(-c3ccc(C#N)c(Cl)c3)n2)no1 (stereo partly drawn) [Example 124, N—((S)-1-(3-(3-chloro-4-cyanophenyl)-1H-pyrazol-1-yl)propan-2-yl)-5-(1-hydroxyethyl)isoxazole-3-carboxamide] | 430 nM
3 | N#Cc1ccc(-c2ccn(CCNC(=O)c3cc(-c4cccnc4)n[nH]3)n2)cc1C#N [Example 52, N-(2-(3-(3,4-dicyanophenyl)-1H-pyrazol-1-yl)ethyl)-3-(pyridin-3-yl)-1H-pyrazole-5-carboxamide] | 450 nM
4 | Cc1cc(-c2ccn(C[C@H](C)NC(=O)c3cc(-c4ccco4)n[nH]3)n2)ccc1C#N [Example 32, (S)—N-(1-(3-(4-cyano-3-methylphenyl)-1H-pyrazol-1-yl)propan-2-yl)-3-(furan-2-yl)-1H-pyrazole-5-carboxamide] | 560 nM
5 | C[C@H](Cn1ccc(-c2ccc(C#N)c(Cl)c2)n1)NC(=O)c1csc(N2CCOCC2)n1 [Example 132, (R)—N-(1-(3-(3-chloro-4-cyanophenyl)-1H-pyrazol-1-yl)propan-2-yl)-2-morpholinothiazole-4-carboxamide] | 210 nM
6 | Cc1nc(C(=O)N[C@@H](C)Cn2ccc(-c3cc(F)c(C#N)c(Cl)c3)n2)c[nH]1 [Example 249, (S)—N-{1-[3-(3-Chloro-4-cyano-5-fluorophenyl)-1H-pyrazol-1-yl]propan-2-yl}-2-methyl-1H-imidazole-4-carboxamide] | 320 nM
7 | Cc1noc(C(=O)N[C@@H](C)Cn2ccc(-c3ccc(C#N)c(Cl)c3)n2)n1 [Example 103, (S)—N-(1-(3-(3-chloro-4-cyanophenyl)-1H-pyrazol-1-yl)propan-2-yl)-3-methyl-1,2,4-oxadiazole-5-carboxamide] | 230 nM
8 | C[C@@H](Cn1ccc(-c2ccc(C#N)c(Cl)c2)n1)NC(=O)c1[nH]nc2c1COCC2 [Example 338, (S)—N-(1-(3-(3-chloro-4-cyanophenyl)-1H-pyrazol-1-yl)propan-2-yl)-2,4,6,7-tetrahydropyrano [4,3-c]pyrazole-3-carboxamide] | 340 nM
9 | O=C(NCCc1ccc(-c2ccc(Cl)c(Cl)c2)o1)c1cc(C(=O)N2CCOCC2)n[nH]1 [Example 8, N-(2-(5-(3,4-dichlorophenyl)furan-2-yl)ethyl)-3-(morpholine-4-carbonyl)-1H-pyrazole-5-carboxamide] | 1600 nM
10 | Cc1c(-c2ccn(C[C@H](C)NC(=O)c3csc(C(C)O)n3)n2)ccc(C#N)c1Cl (stereo partly drawn) [Example 186, N—((S)-1-(3-(3-chloro-4-cyano-2-methylphenyl)-1H-pyrazol-1-yl)propan-2-yl)-2-(1-hydroxyethyl)thiazole-4-carboxamide] | 310 nM
11 | C[C@@H](Cn1ccc(-c2cc(F)c(C#N)c(Cl)c2)n1)NC(=O)c1cn2cccnc2n1 [Example 324, (S)—N-(1-(3-(3-chloro-4-cyano-5-fluorophenyl)-1H-pyrazol-1-yl)propan-2-yl)imidazo [1,2-a]pyrimidine-2-carboxamide] | 1000 nM
12 | Cc1cc(-c2ccn(CCNC(=O)c3cc(-c4cccnc4)n[nH]3)n2)ccc1C#N [Example 53, N-(2-(3-(4-cyano-3-methylphenyl)-1H-pyrazol-1-yl)ethyl)-3-(pyridin-3-yl)-1H-pyrazole-5-carboxamide] | 500 nM
13 | C[C@@H](Cn1ccc(-c2ccc(C#N)c(Cl)c2)n1)NC(=O)c1csc(-c2cn[nH]c2)n1 [Example 206, (S)—N-(1-(3-(3-chloro-4-cyanophenyl)-1H-pyrazol-1-yl)propan-2-yl)-2-(1H-pyrazol-4-yl)thiazole-4-carboxamide] | 490 nM
14 | C[C@H](CNC(=O)c1csc(CC#N)n1)n1ccc(-c2cc(F)c(C#N)c(F)c2)n1 [Example 222, (R)—N-(2-(3-(4-cyano-3,5-difluorophenyl)-1H-pyrazol-1-yl)propyl)-2-(cyanomethyl)thiazole-4-carboxamide] | 250 nM
15 | CCc1noc(C(=O)N[C@@H](C)Cn2ccc(-c3ccc(C#N)c(Cl)c3)n2)n1 [Example 91, (S)—N-(1-(3-(3-chloro-4-cyanophenyl)-1H-pyrazol-1-yl)propan-2-yl)-3-ethyl-1,2,4-oxadiazole-5-carboxamide] | 330 nM

Same assay, conditions: mibolerone-induced (usually 0.1 nM), 4-5 days

Row | SMILES | IC50
16 | Cc1nc(C(=O)N[C@@H](C)Cn2ccc(-c3ccc(C#N)c(Cl)c3)n2)c[nH]1 [Example 248, (S)—N-{1-[3-(3-Chloro-4-cyanophenyl)-1H-pyrazol-1-yl]propan-2-yl}-2-methyl-H-imidazole-4-carboxamide] | 490 nM

— patent publication US11046713B2, “Androgen receptor modulating compounds” (ORION CORPORATION, priority 2009, dated 2021)
